Experimental findings from ChEMBL document CHEMBL1201862, “PubChem BioAssay data set” (2004) are described below.

Common to all, as to assay: NCI anticancer screen, dose series, 48 h
In assay [1] the test system is A549.
Assay [2] deals with RPMI-8226.
The subject of assay [3] is SW-620.
Assay [4] concerns ACHN.
In assay [5] the test system is K562.
Assay [6] relates to OVCAR-4.
The test system of assay [7] is LOX IMVI.
Assay [8] concerns NCI-H460.
Assay [9] has as its system HOP-62.
In assay [10] the test system is IGROV-1.
Assay [11] relates to SK-MEL-2.
The test system of assay [12] is M14.
The subject of assay [13] is OVCAR-3.
Assay [14] has as its system SK-MEL-28.
In assay [15] the test system is U-251.
Assay [16] has as its system MDA-MB-435.
The test system of assay [17] is Hs-578T.
Assay [18] deals with SNB-19.
Assay [19] concerns MDA-N.
Assay [20] concerns MOLT-4.

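Tested at 5 concentrations; 48 h exposure; 96-well plates; endpoints linearly interpolated, else capped at highest concentration. GI50 is the concentration that inhibits growth by half.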 Calls of active or inactive are those of the source. Cut-off read from the data, not from the text of the source: active = GI50 up to about 1.1 µM and inactive = higher.

`O=C(Nc1ccc(-c2cn3ccccc3n2)cc1)c1cc(Br)ccc1O`: the GI50 in [1], in [2], in [3], in assay [4], in assay [5] and in assay [6] was > 100 µM (inactive) in each case. Also, the GI50 in [7], in assay [8], in assay [9], in assay [10], in [11] and in assay [12] was > 100 µM (inactive) each time. For the same compound, the GI50 in assay [13], in [14], in assay [15], in assay [16], in assay [17] and in assay [18] was > 100 µM (inactive) throughout. Further, the GI50 in [19] and in [20] was > 100 µM (inactive) each time.

Turning to `CC(=O)N(C)C(C(=O)N1CC(C)CC1C(=O)N(C)C1C(=O)NC(CC(C)C)C(=O)N2CC(C)CC2C(=O)NC(CC(C)C)C(=O)N(C)C(C(C)C)C(=O)N2CCCC2C(=O)N(C)C(CC(C)C)C(=O)NCC(=O)OC1C)C(C)C` (stereo not given), the GI50 in assay [1], in [2], in assay [3], in assay [4], in assay [5] and in assay [6] was > 100 µM (inactive) each time. In addition, the GI50 in [7] was > 100 µM (inactive); in [8], > 100 µM (inactive); in assay [9], > 100 µM (inactive); in assay [10], 72.1 µM (inactive); in [11], > 100 µM (inactive); in assay [12] it was > 100 µM (inactive). Also, the GI50 in assay [13], in assay [14], in [15], in [16], in assay [17] and in assay [18] was > 100 µM (inactive) in each case. In addition, the GI50 in assay [19] and in assay [20] was > 100 µM (inactive) each time.

`COc1ccc(C2=CN3CCC[C@H]3C=C2c2cc(O)c(OC)c(OC)c2)cc1OC`: the GI50 is 0.00394 µM (active) in assay [1]; 0.00519 µM (active) in assay [2]; 0.00337 µM (active) in [3]; 0.00302 µM (active) in [4]; 0.00339 µM (active) in [5]; 0.00286 µM (active) in assay [6]. Also, the GI50 in assay [7] was 0.00163 µM (active); in assay [8] it was 0.00316 µM (active); in [9], 0.0065 µM (active); in assay [10] it was 0.0104 µM (active); in assay [11], 0.00314 µM (active); in assay [12], 0.00325 µM (active). Also, the GI50 in [13] is 0.00615 µM (active); in [14], 0.0045 µM (active); in [15], 0.00416 µM (active); in assay [16], 0.00284 µM (active); in assay [17], 0.00539 µM (active); in assay [18], 0.00309 µM (active). For the same compound, the GI50 is 0.00337 µM (active) in [19] and 0.00351 µM (active) in [20].

Regarding `Cc1cc(CC(O)(C(F)(F)F)C(F)(F)F)cc(CC(O)(C(F)(F)F)C(F)(F)F)n1`, the GI50 in assay [1] was 3.3 µM (inactive); in assay [2], 1.61 µM (inactive); in assay [3], > 100 µM (inactive); in assay [4] it was 2.79 µM (inactive); in [5], 4.28 µM (inactive); in [6] it was 3.47 µM (inactive). Moreover, the GI50 in assay [7] was 2.42 µM (inactive); in assay [8], 2.04 µM (inactive); in [9] it was 3.33 µM (inactive); in assay [10], 3.46 µM (inactive); in [11], 2.44 µM (inactive); in assay [12], 3.71 µM (inactive). The GI50 in assay [13] is 1.01 µM (active); in [14], 3.03 µM (inactive); in [15] it was 3.3 µM (inactive); in assay [16], 2.88 µM (inactive); in assay [17] it was 2.67 µM (inactive); in assay [18], > 100 µM (inactive). Moreover, the GI50 in assay [19] is 3.88 µM (inactive); in assay [20], 3.24 µM (inactive).

For the compound `S=C1Cc2c(-c3ccc(Cl)cc3)cc(-c3ccccc3)nc2-c2ccccc2N1`, the GI50 is 8.73 µM (inactive) in [1]; 37.3 µM (inactive) in [2]; 19.1 µM (inactive) in assay [3]; 7.82 µM (inactive) in assay [4]; > 100 µM (inactive) in [5]; 3.08 µM (inactive) in assay [6]. Further, the GI50 in assay [7] is 13.9 µM (inactive); in assay [8] it was 13 µM (inactive); in assay [9], 6.98 µM (inactive); in [10], 3.83 µM (inactive); in assay [11], 17.7 µM (inactive); in assay [12], 12.8 µM (inactive). Also, the GI50 in assay [13] is 13 µM (inactive); in assay [14], 13.8 µM (inactive); in assay [15], 4.03 µM (inactive); in assay [16], 15 µM (inactive); in assay [17] it was 3.56 µM (inactive); in [18] it was 4.5 µM (inactive). Moreover, the GI50 in assay [19] is 14 µM (inactive); in assay [20] it was 28.7 µM (inactive).

For the compound `CC(C)C(Cl)CC/C(CBr)=C(\Cl)CCl` (stereo not given), the GI50 in assay [1] was 17.8 µM (inactive); in assay [2], 2.27 µM (inactive); in assay [3], 1.8 µM (inactive); in assay [4] it was 16 µM (inactive); in assay [5], 0.723 µM (active); in [6], 2.27 µM (inactive). In addition, the GI50 in assay [7] is 0.24 µM (active); in [8], 13.4 µM (inactive); in assay [9], 17.1 µM (inactive); in assay [10] it was 1.77 µM (inactive); in assay [11], 2.1 µM (inactive); in assay [12], 1.85 µM (inactive). The GI50 is 4.72 µM (inactive) in [13]; 3.37 µM (inactive) in [14]; 10.6 µM (inactive) in assay [15]; 3.2 µM (inactive) in assay [16]; 2.9 µM (inactive) in [17]; 14.6 µM (inactive) in assay [18]. Further, the GI50 in assay [19] is 2.05 µM (inactive); in assay [20], 1.73 µM (inactive).

`CC(=O)/C=C1\Nc2ccc([N+](=O)[O-])cc2N\C1=C/C(C)=O`: the GI50 was 38.3 µM (inactive) in assay [1]; 20.6 µM (inactive) in [2]; 64.6 µM (inactive) in [3]; 42.5 µM (inactive) in assay [4]; 50.8 µM (inactive) in [5]; 44.7 µM (inactive) in [6]. In addition, the GI50 was 73.5 µM (inactive) in assay [7]; 21.5 µM (inactive) in assay [8]; 44.9 µM (inactive) in [9]; 39.5 µM (inactive) in assay [10]; 29.2 µM (inactive) in assay [11]; > 100 µM (inactive) in assay [12]. For the same compound, the GI50 is 31.1 µM (inactive) in [13]; 51.1 µM (inactive) in assay [14]; 35.3 µM (inactive) in assay [15]; 82.4 µM (inactive) in assay [16]; 26.7 µM (inactive) in assay [17]; 42.2 µM (inactive) in assay [18]. Further, the GI50 is 37.3 µM (inactive) in assay [19] and 21 µM (inactive) in [20].
